Test system: trout
Test: Oral administration to trout in a standard trout feed: examination of bioavailability, pigmenting and performance parameters
Assay type: in vivo
Details: 8 weeks
Experimental: The trout feed comprising the inventive astaxanthin pigments is produced in accordance with Example IV and administered orally to trout (mean live mass 180 g). 3 concentrations are tested: 10, 20 and 40 mg of astaxanthin from the inventive astaxanthin pigmenting per kg of diet.
The trout are raised as described hereinafter: • The trout are given as standard an adaptation phase of 14 days. • During the feeding experiment, 10 trout are kept per pool in constant-flow plastic tanks of volume 80 l of water. The water temperature is 15° C. The water is biologically purified and at least 10% of the total amount of water is replaced by fresh water per day. • The illumination period is 12 hours per day to avoid premature sexual maturation of the animals. • The number of pools per treatment is 3. This is equivalent to 30 trout per dose level. • The diets are stored at −20° C. to avoid astaxanthin losses. The feed is thawed by portions (weekly) and administered. • The experimental period is 8 weeks. […]
The average feed consumption per fish, feed conversion and live mass gain are statistically evaluated.
The pigmenting of the fish is measured by reflectance spectrophotometric measurements (Minolta a value =red value at the fillet incision) and by determining the astaxanthin content (mg/kg) in the fillet in each case compared with the negative control.

CC1=C(/C=C/C(C)=C/C=C/C(C)=C/C=C/C=C(C)/C=C/C=C(C)/C=C/C2=C(C)C(=O)[C@@H](O)CC2(C)C)C(C)(C)C[C@H](O)C1=O [synthetic astaxanthin, astaxanthin]
performance parameters (feed intake, feed utilization, live mass gain): differences between or within treatments: no statistically secured differences
